Results published in US11918666B2, “Topical formulations comprising strontium and methylsulfonylmethane (MSM) and methods of treatment” (NOON AESTHETICS M.R LTD., priority 2018, dated 2024).
Read-outs that look alike come from different tables or passages of the source.

Columns and labels:
[1] = target: tyrosinase (Homo sapiens, UniProt P14679); details: higher than beta-arbutin; cited from earlier work
[2] = test system: skin; details: rabbits

Sequence of tyrosinase (P14679 19-529): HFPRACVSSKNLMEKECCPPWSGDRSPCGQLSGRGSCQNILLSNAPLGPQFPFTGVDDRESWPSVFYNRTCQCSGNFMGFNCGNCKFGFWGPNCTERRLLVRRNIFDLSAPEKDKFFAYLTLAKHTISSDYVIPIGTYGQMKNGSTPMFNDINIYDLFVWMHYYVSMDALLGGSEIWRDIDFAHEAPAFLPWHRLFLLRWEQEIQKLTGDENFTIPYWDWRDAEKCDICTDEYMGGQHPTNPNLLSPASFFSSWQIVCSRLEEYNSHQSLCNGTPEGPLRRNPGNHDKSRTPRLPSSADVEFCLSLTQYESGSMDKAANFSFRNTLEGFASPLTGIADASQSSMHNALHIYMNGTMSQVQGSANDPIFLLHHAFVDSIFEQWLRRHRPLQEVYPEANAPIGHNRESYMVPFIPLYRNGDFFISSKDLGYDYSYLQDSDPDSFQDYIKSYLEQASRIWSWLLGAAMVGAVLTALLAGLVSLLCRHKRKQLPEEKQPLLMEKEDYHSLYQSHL

Row | Compound | stability and efficiency relative to beta-arbutin [1] [times] | skin irritant effect ([2]; glycolic acid applied alone at 10% w/w) | skin irritant effect ([2]; glycolic acid applied alone at 30% or 40% w/w)
1 | alpha-arbutin [alpha arbutin] | 50 |  | 
2 | O=C(O)CO [glycolic acid] |  | mild skin irritant effect | moderate skin irritant
